Source: the Kinase Knowledgebase extract (Sharma et al. 2016)

What follows are compounds tested against EGFR (human) (UniProt P00533). Settings: bt474.
EGFR (human), sequence (P00533 whole entry, looked up): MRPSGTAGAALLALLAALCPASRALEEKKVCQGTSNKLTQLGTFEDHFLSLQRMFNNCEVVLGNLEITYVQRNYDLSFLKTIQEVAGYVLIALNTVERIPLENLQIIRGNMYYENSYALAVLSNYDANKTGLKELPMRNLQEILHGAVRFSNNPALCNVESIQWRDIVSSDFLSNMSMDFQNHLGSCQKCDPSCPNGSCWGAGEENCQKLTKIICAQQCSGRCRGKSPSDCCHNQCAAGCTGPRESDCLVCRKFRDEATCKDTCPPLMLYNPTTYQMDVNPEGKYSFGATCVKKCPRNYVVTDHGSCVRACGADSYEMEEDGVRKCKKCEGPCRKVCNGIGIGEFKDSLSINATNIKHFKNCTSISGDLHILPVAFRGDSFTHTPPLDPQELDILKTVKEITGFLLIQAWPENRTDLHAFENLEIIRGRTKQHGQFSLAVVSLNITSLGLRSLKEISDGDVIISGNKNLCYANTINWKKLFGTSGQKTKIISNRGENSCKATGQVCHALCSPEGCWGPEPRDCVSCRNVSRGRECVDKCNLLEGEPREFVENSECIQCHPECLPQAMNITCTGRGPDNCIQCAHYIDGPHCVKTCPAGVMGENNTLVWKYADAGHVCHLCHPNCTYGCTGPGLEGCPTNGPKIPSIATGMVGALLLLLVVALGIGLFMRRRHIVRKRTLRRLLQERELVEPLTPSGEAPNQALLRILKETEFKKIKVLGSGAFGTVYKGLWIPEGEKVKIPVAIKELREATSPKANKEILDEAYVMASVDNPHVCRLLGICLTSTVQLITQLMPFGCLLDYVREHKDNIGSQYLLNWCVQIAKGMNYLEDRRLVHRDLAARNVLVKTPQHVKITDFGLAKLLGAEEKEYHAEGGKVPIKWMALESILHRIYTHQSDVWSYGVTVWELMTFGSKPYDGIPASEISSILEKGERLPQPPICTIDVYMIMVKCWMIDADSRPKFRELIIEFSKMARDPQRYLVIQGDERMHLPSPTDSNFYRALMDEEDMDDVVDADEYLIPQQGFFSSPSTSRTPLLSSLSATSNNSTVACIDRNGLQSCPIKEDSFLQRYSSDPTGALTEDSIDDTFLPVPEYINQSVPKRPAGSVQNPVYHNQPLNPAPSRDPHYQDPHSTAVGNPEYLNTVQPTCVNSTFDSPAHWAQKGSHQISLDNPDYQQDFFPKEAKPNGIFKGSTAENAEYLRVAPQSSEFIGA

| IC50 [nM] | SMILES |
| --- | --- |
| 2.3 | COc1cc2ncnc(Nc3ccc(F)c(Cl)c3)c2cc1NC(=O)/C=C/CN1CCC1CO (centres undefined) |
| 21.5 | COC[C@@H]1CCN1C/C=C/C(=O)Nc1cc2c(Nc3ccc(F)c(Cl)c3)ncnc2cc1OC |
| 1.6 | COC[C@H]1CCN1C/C=C/C(=O)Nc1cc2c(Nc3ccc(F)c(Cl)c3)ncnc2cc1OC |
| 3.9 | O=C(/C=C/CN1CCC1CO)Nc1cc2c(Nc3ccc(F)c(Cl)c3)ncnc2cc1O[C@H]1CCOC1 (some centres undefined) |
| 5.8 | COCCOc1cc2ncnc(Nc3ccc(F)c(Cl)c3)c2cc1NC(=O)/C=C/CN1CC[C@H]1COC |
| 2.9 | COCC1CCN1C/C=C/C(=O)Nc1cc2c(Nc3ccc(F)c(Cl)c3)ncnc2cc1O[C@H]1CCOC1 (some centres undefined) |
| 2 | CCOc1cc2ncnc(Nc3ccc(F)c(Cl)c3)c2cc1NC(=O)/C=C/CN1CC[C@@H]1COC |
| 2.7 | O=C(/C=C/CN1CCC1CO)Nc1cc2c(Nc3ccc(F)c(Cl)c3)ncnc2cc1OC[C@H]1COCCO1 (some centres undefined) |
| 1.4 | COCCOc1cc2ncnc(Nc3ccc(F)c(Cl)c3)c2cc1NC(=O)/C=C/CN1CC[C@@H]1COC |
| 6.6 | COC[C@H]1CCN1C/C=C/C(=O)Nc1cc2c(Nc3ccc(F)c(Cl)c3)ncnc2cc1OCC1CC1 |
| 9.5 | O=C(/C=C/CN1CCC1CO)Nc1cc2c(Nc3ccc(F)c(Cl)c3)ncnc2cc1OCC1CC1 (centres undefined) |
| 21.7 | COC[C@@H]1CCN1C/C=C/C(=O)Nc1cc2c(Nc3ccc(F)c(Cl)c3)ncnc2cc1OCC1CC1 |
| 10.8 | O=C(/C=C/CN1CCC1CO)Nc1cc2c(Nc3ccc(F)c(Cl)c3)ncnc2cc1OC[C@H]1[C@@H]2COC[C@@H]21 (some centres undefined) |
| 17.5 | O=C(/C=C/CN1CCC1CO)Nc1cc2c(Nc3ccc(F)c(Cl)c3)ncnc2cc1OC[C@@H]1COCCO1 (some centres undefined) |
